Patent publication US20030232797A1, “Novel derivatives of androstane and androstene with ascorbic acid and use thereof in treating or preventing various conditions, diseases, and disorders” (priority 2002, published 2003)
Where a name gives a salt, the structure may show the parent alone.

C[C@]12CC[C@H](OP(=O)(O)OC3=C(O)C(C(O)CO)OC3=O)CC1=CCC1C2CC[C@@]2(C)C1CC[C@@H]2OP(=O)(O)OC1=C(O)C(C(O)CO)OC1=O (stereo partly drawn) [Diascorbyl diphosphate of androst-5ene-3β,17β-diol, tetrasodium salt]
Solubility in ethanol (ethanol): Slightly soluble
Solubility in water (water, 50 mg sample, 50 microliter portions every 10 minutes, ultrasonic bath): 10.6 %, w/w
